From EP0674651B1, “SUBSTITUTED 6-AZAANDROSTENONES” (priority 1992, dated 1994) come the findings set out here.

Assay [1] concerns the target T1, human type 1 5α-reductase (Homo sapiens, UniProt P18405).
T1 sequence (P18405 1-259): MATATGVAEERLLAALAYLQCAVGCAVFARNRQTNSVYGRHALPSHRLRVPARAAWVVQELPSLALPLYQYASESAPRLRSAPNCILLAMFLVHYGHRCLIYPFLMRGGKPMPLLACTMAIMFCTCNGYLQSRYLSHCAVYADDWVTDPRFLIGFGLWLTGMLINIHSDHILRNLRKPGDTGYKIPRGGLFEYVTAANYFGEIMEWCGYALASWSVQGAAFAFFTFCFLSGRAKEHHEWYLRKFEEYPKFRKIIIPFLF
Nature of the assay: 5α-reductase in vitro inhibitory activity, human type 1.

Assay [2] addresses T2, human type 2 5α-reductase (Homo sapiens, UniProt P31213).
T2 sequence (P31213 1-254): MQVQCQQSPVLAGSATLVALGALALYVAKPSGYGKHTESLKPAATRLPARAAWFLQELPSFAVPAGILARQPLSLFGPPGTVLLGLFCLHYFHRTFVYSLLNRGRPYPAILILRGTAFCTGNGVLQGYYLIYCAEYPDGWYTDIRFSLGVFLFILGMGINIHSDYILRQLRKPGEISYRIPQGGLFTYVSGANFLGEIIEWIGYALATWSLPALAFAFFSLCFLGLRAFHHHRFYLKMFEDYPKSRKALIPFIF
Nature of the assay: 5α-reductase in vitro inhibitory activity, human type 2.

For assay [3], the target named is Rat Prostatic 5α-reductase. The experiment in a line: 5α-reductase in vitro inhibitory activity, rat prostatic. Particulars: read-out: IC50 Rat Prostatic; microsomes derived from prostate tissue from the rat.
Procedure: Microsomes were prepared by homogenization of the tissue or cells, followed by differential centrifugation of the homogenate. […] Corresponding incubations were carried out with no test compound as a control study.
The percentage of conversion of testosterone to DHT in the presence of test compounds compared to the corresponding conversion in the control study was estimated using high pressure liquid chromatography (HPLC) with radiochemical detection.
Setting [4] is: read-out: IC50 Human Type 1, microsomes of recombinant baculovirus infected SF9 cells, preincubated 10 minutes at pH 7.0, 100nM testosterone, 1 mM NADPH.
[5] abbreviates: read-out: IC50 Human Type 2, microsomes, preincubated 20 minutes at pH 6.0, 8nM testosterone, 1 mM NADPH.

pIC50: −log10 of the molar value. Read-outs that look alike come from different tables or passages of the source. Bounds are passed on as bounds.

As for “17β-N-2-(3-N-Methylpyrrole)ethyl-carbamoyl-6-azaandrost-4-en-3-one [Compound 29]”, the values for the negative-log IC50 (pIC50) in assay [1] (setting [4]), in assay [2] (setting [5]) and in assay [3] were less than 7.00, 7.00 to 8.00 and 7.00 to 8.00, respectively.
Regarding “17β-N-(2-t-Butyl-5-(N-methyl)methylsulfonamide)phenyl-6-azaandrost-4-en-3-one [Compound 91]”, the negative-log IC50 (pIC50) is 7.00 to 8.00 in assay [1] (setting [4]), more than 8.00 in assay [2] (setting [5]) and 7.00 to 8.00 in assay [3].
On to `C[C@]12CC[C@H]3[C@@H](CNC4=CC(=O)CC[C@@]43C)[C@@H]1CC[C@@H]2C(=O)NC1c2ccccc2-c2ccccc21` [Compound 1, 17β-N-9-Fluorenyl-carbamoyl-6-azaandrost-4-en-3-one], for which the pIC50 was less than 7.00 in assay [1], more than 8.00 in assay [2] and 7.00 to 8.00 in assay [3].
For `C[C@]12CC[C@H]3[C@@H](CNC4=CC(=O)CC[C@@]43C)[C@@H]1CC[C@@H]2C(=O)CC1CCCCC1` [Compound 2, 17β-(1-Oxo-2-cyclohexylethyl)-6-azaandrost-4-en-3-one], the pIC50 in assay [1], in assay [2] and in assay [3] was more than 8.00 in each case.
Turning to `CC(C)(C)C(=O)OCC1CCC2C3CNC4=CC(=O)CCC4(C)C3CCC12C` (stereo not drawn) [Compound 3, 17β-Hydroxymethyl-(trimethylacetate)-6-azaandrost-4-en-3-one], the pIC50 in assay [1] was 7.00 to 8.00; in assay [2], 7.00 to 8.00; in assay [3], more than 8.00.
On to `C[C@]12CC[C@H]3[C@@H](CNC4=CC(=O)CC[C@@]43C)[C@@H]1CC[C@@H]2C(=O)Nc1ccc2c(c1)CCC2` [Compound 4, 17β-N-5-Indanylcarbamoyl-6-azaandrost-4-en-3-one], for which the pIC50 in assay [1] was less than 7.00; in assay [2], more than 8.00; in assay [3], less than 7.00.
Consider `CC12CCC(=O)C=C1NCC1C2CCC2(C)C(C(=O)Nc3ccc(N4CCOCC4)cc3)CCC12` (stereo not drawn) [Compound 5, 17β-N-Phenyl-(4-morpholino)-carbamoyl-6-azaandrost-4-en-3-one], for which the results for the pIC50 in assay [1], in assay [2] and in assay [3] were less than 7.00, 7.00 to 8.00 and 7.00 to 8.00, respectively.
In the case of `C[C@]12CC[C@H]3[C@@H](CNC4=CC(=O)CC[C@@]43C)[C@@H]1CC[C@@H]2C(=O)Nc1ccc2c(c1)OCCO2` [Compound 6, 17β-N-4-Benzodioxan-carbamoyl-6-azaandrost-4-en-3-one], the negative-log IC50 (pIC50) in assay [1] (setting [4]) was less than 7.00; in assay [2] (setting [5]), 7.00 to 8.00; in assay [3], 7.00 to 8.00.
With `CC12CCC(=O)C=C1NCC1C2CCC2(C)C(C(=O)Nc3ccc4c(c3)OCO4)CCC12` (stereo not drawn) [Compound 7, 17β-N-(3,4-Methylenedioxy)phenyl-carbamoyl-6-azaandrost-4-en-3-one], the negative-log IC50 (pIC50) in assay [1] was less than 7.00; in assay [2], more than 8.00; in assay [3], 7.00 to 8.00.
For `CC12CCC(=O)C=C1NCC1C2CCC2(C)C(C(=O)Nc3ccccc3C(F)(F)F)CCC12` (stereo not drawn) [Compound 9, 17β-N-(2-Trifluoromethyl)phenyl-carbamoyl-6-azaandrost-4-en-3-one], the pIC50 is 7.00 to 8.00 in assay [1], more than 8.00 in assay [2] and more than 8.00 in assay [3].
As to `CC(C)(C)c1ccc(C(C)(C)C)c(NC(=O)C2CCC3C4CNC5=CC(=O)CCC5(C)C4CCC23C)c1` (stereo not drawn) [Compound 10, 17β-N-(2,5-Di-t-butyl)phenyl-carbamoyl-6-azaandrost-4-en-3-one], the results for the pIC50 in assay [1], in assay [2] and in assay [3] were more than 8.00, more than 8.00 and 7.00 to 8.00, respectively.
`CC12CCC(=O)C=C1NCC1C2CCC2(C)C(C(=O)NC(c3ccccc3)c3ccc(Cl)cc3)CCC12` (stereo not drawn) [Compound 11, 17β-N-(4-Chlorophenyl)(phenyl)methyl-carbamoyl-6-azaandrost-4-en-3-one]: the pIC50 is 7.00 to 8.00 in assay [1], more than 8.00 in assay [2] and more than 8.00 in assay [3].
As for `Cc1ccc(CCNC(=O)C2CCC3C4CNC5=CC(=O)CCC5(C)C4CCC23C)cc1` (stereo not drawn) [Compound 12, 17β-N-(4-Methyl)phenethyl-carbamoyl-6-azaandrost-4-en-3-one], the figures for the negative-log IC50 (pIC50) in assay [1], in assay [2] and in assay [3] were 7.00 to 8.00, more than 8.00 and more than 8.00, respectively.
Take `CC(Cc1ccccc1)NC(=O)C1CCC2C3CNC4=CC(=O)CCC4(C)C3CCC12C` (stereo not drawn) [Compound 13, 17β-N-(α-Methyl)phenethyl-carbamoyl-6-azaandrost-4-en-3-one]: the figures for the pIC50 in assay [1], in assay [2] and in assay [3] were 7.00 to 8.00, more than 8.00 and more than 8.00, respectively.
Consider `CC(C)c1cccc(C(C)C)c1NC(=O)[C@H]1CC[C@H]2[C@@H]3CNC4=CC(=O)CC[C@]4(C)[C@H]3CC[C@]12C` [Compound 14, 17β-N-(2,6-Di-i-propyl)phenyl-carbamoyl-6-azaandrost-4-en-3-one], for which the pIC50 in assay [1] is 7.00 to 8.00; in assay [2], more than 8.00; in assay [3], more than 8.00.
Regarding `CC(C)(C)c1ccc(C2(NC(=O)[C@H]3CC[C@H]4[C@@H]5CNC6=CC(=O)CC[C@]6(C)[C@H]5CC[C@]34C)CCCCCC2)cc1` [Compound 136, 17β-N-1-(4-t-Butylphenyl)cycloheptyl-carbamoyl-6-azaandrost-4-en-3-one], the pIC50 in assay [1] and in assay [2] was more than 8.00 throughout.
In the case of `C[C@]12CC[C@H]3[C@@H](CNC4=CC(=O)CC[C@@]43C)[C@@H]1CC[C@@H]2C(=O)Nc1cccc(C(=O)O)c1` [Compound 137, 17β-N-(3-Carboxy)phenyl-carbamoyl-6-azaandrost-4-en-3-one], the values for the negative logarithm of the IC50 (pIC50) in assay [1] and in assay [2] were less than 7.00 and more than 8.00, respectively.
For the molecule `C[C@]12CC[C@H]3[C@@H](CNC4=CC(=O)CC[C@@]43C)[C@@H]1CC[C@@H]2C(=O)Nc1cccc2c1C(=O)c1ccccc1-2` [Compound 138, 17β-N-1-(9-Fluorenonyl)-carbamoyl-6-azaandrost-4-en-3-one], the results for the pIC50 in assay [1] and in assay [2] were 7.00 to 8.00 and more than 8.00, respectively.
For `CC(C)(C)c1ccc(C2(NC(=O)[C@H]3CC[C@H]4[C@@H]5CNC6=C(Cl)C(=O)CC[C@]6(C)[C@H]5CC[C@]34C)CCCCC2)cc1` [Compound 139, 17β-N-1-(4-t-Butylphenyl)cyclohexyl-carbamoyl-6-azaandrost-4-chloro-4-en-3-one], the pIC50 in assay [1] and in assay [2] was more than 8.00 each time.
Take `CCc1cc(-c2ccc(Cl)cc2)cc(CC)c1NC(=O)[C@H]1CC[C@H]2[C@@H]3CNC4=CC(=O)CC[C@]4(C)[C@H]3CC[C@]12C` [Compound 140, 17β-N-(2,6-Diethyl-4-(4-chlorophenyl))phenyl-carbamoyl-6-azaandrost-4-en-3-one]: the pIC50 in assay [1] and in assay [2] was more than 8.00 throughout.
For the molecule `C[C@]12CC[C@H]3[C@@H](CNC4=CC(=O)CC[C@@]43C)[C@@H]1CC[C@@H]2C(=O)NNc1ccccc1` [Compound 141, 17β-N-(2-Phenyl)-hydrazidyl-carbamoyl-6-azaandrost-4-en-3-one], the figures for the pIC50 in assay [1] and in assay [2] were less than 7.00 and more than 8.00, respectively.
As to `CC(C)(C)NC(=O)c1ccc(C(F)(F)F)cc1NC(=O)[C@H]1CC[C@H]2[C@@H]3CNC4=CC(=O)CC[C@]4(C)[C@H]3CC[C@]12C` [Compound 142, 17β-N-(2-t-Butylcarbamoyl-5-trifluoromethyl)phenyl-carbamoyl-6-azaandrost-4-en-3-one], the negative-log IC50 (pIC50) in assay [1] is less than 7.00; in assay [2], more than 8.00.
`CC(C)(C)c1ccc(C2(NC(=O)[C@H]3CC[C@H]4[C@@H]5CNC6=CC(=O)CC[C@]6(C)[C@H]5CC[C@]34C)CCSCC2)cc1` [Compound 143, 17β-N-4-(4-t-Butylphenyl)tetrahydrothiopyranyl-carbamoyl-6-azaandrost-4-en-3-one]: the pIC50 in assay [1] and in assay [2] was more than 8.00 each time.
Regarding `CC(C)(C)c1ccc(C2(NC(=O)[C@H]3CC[C@H]4[C@@H]5CNC6=CC(=O)CC[C@]6(C)[C@H]5CC[C@]34C)C3CCCC2CCC3)cc1` (stereo partly drawn) [Compound 144, 17β-N-9-(4-t-Butylphenyl)bicyclo[3.3.1]nonyl-carbamoyl-6-azaandrost-4-en-3-one], the pIC50 in assay [1] and in assay [2] was more than 8.00 each time.
Take `CC(C)(C)c1ccc(C2(NC(=O)[C@H]3CC[C@H]4[C@@H]5CNC6=CC(=O)CC[C@]6(C)[C@H]5CC[C@]34C)CCOCC2)cc1` [Compound 145, 17β-N-4-(4-t-Butylphenyl)tetrahydropyranyl-carbamoyl-6-azaandrost-4-en-3-one]: the pIC50 in assay [1] and in assay [2] was more than 8.00 each time.
Turning to `C[C@]12CC[C@H]3[C@@H](CNC4=CC(=O)CC[C@@]43C)[C@@H]1CC[C@@H]2C(=O)NC1(c2ccc(Cl)cc2)CCCCC1` [Compound 146, 17β-N-1-(4-Chlorophenyl)cyclohexyl-carbamoyl-6-azaandrost-4-en-3-one], the pIC50 in assay [1] and in assay [2] was more than 8.00 each time.
As to `CC(C)(C)c1ccc(-c2ccc(C(C)(C)C)c(NC(=O)[C@H]3CC[C@H]4[C@@H]5CNC6=CC(=O)CC[C@]6(C)[C@H]5CC[C@]34C)c2)cc1` [Compound 147, 17β-N-(2-t-Butyl-5-(4-t-butyl)phenyl)phenyl-carbamoyl-6-azaandrost-4-en-3-one], the negative logarithm of the IC50 (pIC50) in assay [1] and in assay [2] was more than 8.00 throughout.
